Results published in patent US7585460B2, “Method for inhibiting the biological acidification of water in contact with materials containing sulfur” (ENI S.p.A., priority 2003, dated 2009).

How the values were obtained:
Thiobacilli (consortium) [1] = assay: Effect of different salts on acidification, TM medium with sulfur powder and inoculated mixed culture (Example 7); type: cell-based, Thiobacillus
Procedure: The verification is aimed at discovering the effects deriving from the presence of different salts at varying concentrations on the same consortium.
A series of 12 100 ml flasks containing 50 ml of TM medium (with 0.4 g of sulfur powder), was inoculated with 1 ml of mixed culture containing 10^8 cells/ml.
• 3 control flasks containing TM and sulfur, with NaCl (0.16 M, 0.33 M, 0.56 M); • 3 flasks with TM, sulfur and Na2SO4 (0.12 M, 0.24 M, 0.56 M); • 3 flasks with TM, sulfur and KCl (0.13 M, 0.26 M, 0.56 M); • 3 flasks with TM, sulfur and KNO3 (0.09 M, 0.19 M, 0.56 M) The data collected are listed in Table 6.

Thiobacilli (consortium) [2] = assay: as above; type: cell-based, Thiobacillus; conditions: salt 0.5 M, day 28
[3] = tested on: Thiobacilli (microbial consortium); assay: Comparison of NaCl and SLS, TM medium with sulfur flowers and inoculated mixed culture (Example 6); type: cell-based, Thiobacillus; conditions: for O.D. / p.H.: C: 20 mg/l of SLS
Procedure: The experiment was aimed at comparing the action of SLS, a known bacteriostatic for Thiobacilli, and Sodium Chloride on the same microbial consortium.
A series of 6 100 ml flasks containing 50 ml of TM medium (with 0.4 g of sulfur flowers), were inoculated with 1 ml of mixed culture containing 10^8 cells/ml.
• A—2 control flasks containing TM and sulfur, without NaCl; • B—2 flasks with TM, sulfur and 33 g/l of NaCl; • C—2 flasks with TM, sulfur and 20 mg/l of SLS (concentration used in literature as bacteriostatic) The pH values and the bacterial growth were measured over a period of 34 days, by means of the increase in the absorbance.

Thiobacilli = conditions: bacteriostatic product; literature (Clark et al. 1998); cited from earlier work

Compound: [Cl-].[K+] [KCl]
- PH (Thiobacilli (consortium) [1]; salt 0.13 M, day 0): 6.0
- PH (Thiobacilli (consortium) [1]; salt 0.13 M, day 2): 6.0
- PH (Thiobacilli (consortium) [1]; salt 0.13 M, day 6): 4.5
- PH (Thiobacilli (consortium) [1]; salt 0.13 M, day 9): 4.0
- PH (Thiobacilli (consortium) [1]; salt 0.13 M, day 12): 3.5
- PH (Thiobacilli (consortium) [1]; salt 0.13 M, day 15): 3.0
- PH (Thiobacilli (consortium) [1]; salt 0.13 M, day 18): 3.0
- PH (Thiobacilli (consortium) [1]; salt 0.13 M, day 20): 3.0
- PH (Thiobacilli (consortium) [1]; salt 0.13 M, day 24): 2.5
- PH (Thiobacilli (consortium) [1]; salt 0.13 M, day 28): 2.5
- PH (Thiobacilli (consortium) [1]; salt 0.13 M, day 30): 2.4
- PH (Thiobacilli (consortium) [1]; salt 0.13 M, day 40): 1.5
- PH (Thiobacilli (consortium) [1]; salt 0.26 M, day 0): 6.0
- PH (Thiobacilli (consortium) [1]; salt 0.26 M, day 2): 6.0
- PH (Thiobacilli (consortium) [1]; salt 0.26 M, day 6): 5.5
- PH (Thiobacilli (consortium) [1]; salt 0.26 M, day 9): 5.5
- PH (Thiobacilli (consortium) [1]; salt 0.26 M, day 12): 5.5
- PH (Thiobacilli (consortium) [1]; salt 0.26 M, day 15): 5.5
- PH (Thiobacilli (consortium) [1]; salt 0.26 M, day 18): 5.2
- PH (Thiobacilli (consortium) [1]; salt 0.26 M, day 20): 5.2
- PH (Thiobacilli (consortium) [1]; salt 0.26 M, day 24): 5.0
- PH (Thiobacilli (consortium) [1]; salt 0.26 M, day 28): 5.0
- PH (Thiobacilli (consortium) [1]; salt 0.26 M, day 30): 5.0
- PH (Thiobacilli (consortium) [1]; salt 0.26 M, day 40): 4.9
- PH (Thiobacilli (consortium) [1]; salt 0.56 M, day 0): 6.0
- PH (Thiobacilli (consortium) [1]; salt 0.56 M, day 2): 6.0
- PH (Thiobacilli (consortium) [1]; salt 0.56 M, day 6): 6.0
- PH (Thiobacilli (consortium) [1]; salt 0.56 M, day 9): 6.0
- PH (Thiobacilli (consortium) [1]; salt 0.56 M, day 12): 6.0
- PH (Thiobacilli (consortium) [1]; salt 0.56 M, day 15): 6.0
- PH (Thiobacilli (consortium) [1]; salt 0.56 M, day 18): 6.0
- PH (Thiobacilli (consortium) [1]; salt 0.56 M, day 20): 6.0
- PH (Thiobacilli (consortium) [1]; salt 0.56 M, day 24): 6.0
- PH (Thiobacilli (consortium) [1]; salt 0.56 M, day 28): 6.0
- PH (Thiobacilli (consortium) [1]; salt 0.56 M, day 30): 6.0
- PH (Thiobacilli (consortium) [1]; salt 0.56 M, day 40): 5.8

Compound: O=[N+]([O-])[O-].[K+] [KNO3]
- PH (Thiobacilli (consortium) [1]; salt 0.09 M, day 0): 6.0
- PH (Thiobacilli (consortium) [1]; salt 0.09 M, day 2): 6.0
- PH (Thiobacilli (consortium) [1]; salt 0.09 M, day 6): 3.8
- PH (Thiobacilli (consortium) [1]; salt 0.09 M, day 9): 3.0
- PH (Thiobacilli (consortium) [1]; salt 0.09 M, day 12): 3.0
- PH (Thiobacilli (consortium) [1]; salt 0.09 M, day 15): 3.0
- PH (Thiobacilli (consortium) [1]; salt 0.09 M, day 18): 3.0
- PH (Thiobacilli (consortium) [1]; salt 0.09 M, day 20): 3.0
- PH (Thiobacilli (consortium) [1]; salt 0.09 M, day 24): 3.0
- PH (Thiobacilli (consortium) [1]; salt 0.09 M, day 28): 3.0
- PH (Thiobacilli (consortium) [1]; salt 0.09 M, day 30): 3.0
- PH (Thiobacilli (consortium) [1]; salt 0.09 M, day 40): 3.0
- PH (Thiobacilli (consortium) [1]; salt 0.19 M, day 0): 6.0
- PH (Thiobacilli (consortium) [1]; salt 0.19 M, day 2): 6.0
- PH (Thiobacilli (consortium) [1]; salt 0.19 M, day 6): 4.8
- PH (Thiobacilli (consortium) [1]; salt 0.19 M, day 9): 4.0
- PH (Thiobacilli (consortium) [1]; salt 0.19 M, day 12): 4.0
- PH (Thiobacilli (consortium) [1]; salt 0.19 M, day 15): 4.0
- PH (Thiobacilli (consortium) [1]; salt 0.19 M, day 18): 4.0
- PH (Thiobacilli (consortium) [1]; salt 0.19 M, day 20): 4.0
- PH (Thiobacilli (consortium) [1]; salt 0.19 M, day 24): 4.0
- PH (Thiobacilli (consortium) [1]; salt 0.19 M, day 28): 4.0
- PH (Thiobacilli (consortium) [1]; salt 0.19 M, day 30): 3.3
- PH (Thiobacilli (consortium) [1]; salt 0.19 M, day 40): 3.2
- PH (Thiobacilli (consortium) [1]; salt 0.5 M, day 0): 6.0
- PH (Thiobacilli (consortium) [1]; salt 0.5 M, day 2): 6.0
- PH (Thiobacilli (consortium) [1]; salt 0.5 M, day 6): 6.0
- PH (Thiobacilli (consortium) [1]; salt 0.5 M, day 9): 6.0
- PH (Thiobacilli (consortium) [1]; salt 0.5 M, day 12): 6.0
- PH (Thiobacilli (consortium) [1]; salt 0.5 M, day 15): 6.0
- PH (Thiobacilli (consortium) [1]; salt 0.5 M, day 18): 6.0
- PH (Thiobacilli (consortium) [1]; salt 0.5 M, day 20): 6.0
- PH (Thiobacilli (consortium) [1]; salt 0.5 M, day 24): 6.0
- PH (Thiobacilli (consortium) [1]; salt 0.5 M, day 30): 6.0
- PH (Thiobacilli (consortium) [1]; salt 0.5 M, day 40): 5.8
- PH (Thiobacilli (consortium) [2]): 6.0

Compound: O=S(=O)([O-])[O-].[Na+].[Na+] [Na2SO4]
- PH (Thiobacilli (consortium) [1]; salt 0.12 M, day 0): 6.0
- PH (Thiobacilli (consortium) [1]; salt 0.12 M, day 2): 6.0
- PH (Thiobacilli (consortium) [1]; salt 0.12 M, day 6): 3.5
- PH (Thiobacilli (consortium) [1]; salt 0.12 M, day 9): 2.8
- PH (Thiobacilli (consortium) [1]; salt 0.12 M, day 12): 2.8
- PH (Thiobacilli (consortium) [1]; salt 0.12 M, day 15): 2.8
- PH (Thiobacilli (consortium) [1]; salt 0.12 M, day 18): 2.5
- PH (Thiobacilli (consortium) [1]; salt 0.12 M, day 20): 1.8
- PH (Thiobacilli (consortium) [1]; salt 0.12 M, day 24): 1.8
- PH (Thiobacilli (consortium) [1]; salt 0.12 M, day 28): 1.6
- PH (Thiobacilli (consortium) [1]; salt 0.12 M, day 30): 1.6
- PH (Thiobacilli (consortium) [1]; salt 0.12 M, day 40): 1.4
- PH (Thiobacilli (consortium) [1]; salt 0.24 M, day 0): 6.0
- PH (Thiobacilli (consortium) [1]; salt 0.24 M, day 2): 6.0
- PH (Thiobacilli (consortium) [1]; salt 0.24 M, day 6): 4.5
- PH (Thiobacilli (consortium) [1]; salt 0.24 M, day 9): 4.0
- PH (Thiobacilli (consortium) [1]; salt 0.24 M, day 12): 3.5
- PH (Thiobacilli (consortium) [1]; salt 0.24 M, day 15): 3.0
- PH (Thiobacilli (consortium) [1]; salt 0.24 M, day 18): 2.8
- PH (Thiobacilli (consortium) [1]; salt 0.24 M, day 20): 2.0
- PH (Thiobacilli (consortium) [1]; salt 0.24 M, day 24): 2.0
- PH (Thiobacilli (consortium) [1]; salt 0.24 M, day 28): 1.7
- PH (Thiobacilli (consortium) [1]; salt 0.24 M, day 30): 1.5
- PH (Thiobacilli (consortium) [1]; salt 0.24 M, day 40): 1.5
- PH (Thiobacilli (consortium) [1]; salt 0.56 M, day 0): 6.0
- PH (Thiobacilli (consortium) [1]; salt 0.56 M, day 2): 6.0
- PH (Thiobacilli (consortium) [1]; salt 0.56 M, day 6): 6.0
- PH (Thiobacilli (consortium) [1]; salt 0.56 M, day 9): 6.0
- PH (Thiobacilli (consortium) [1]; salt 0.56 M, day 12): 6.0
- PH (Thiobacilli (consortium) [1]; salt 0.56 M, day 15): 5.9
- PH (Thiobacilli (consortium) [1]; salt 0.56 M, day 18): 5.9
- PH (Thiobacilli (consortium) [1]; salt 0.56 M, day 20): 5.9
- PH (Thiobacilli (consortium) [1]; salt 0.56 M, day 24): 5.9
- PH (Thiobacilli (consortium) [1]; salt 0.56 M, day 28): 5.9
- PH (Thiobacilli (consortium) [1]; salt 0.56 M, day 30): 5.9
- PH (Thiobacilli (consortium) [1]; salt 0.56 M, day 40): 5.8

Compound: CCCCCCCCCCCCOS(=O)(=O)[O-].[Na+] [SLS, Sodium Lauryl Sulfate, reference compound]
- inhibition of the acidification of water in contact with elemental sulfur ([3]; 33 g/l NaCl, 20 mg/l SLS): capable of inhibiting the acidification
- O.D. ([3]; day 0): 0.014
- p.H. ([3]; day 0): 6.0
- O.D. ([3]; day 3): 0.013
- p.H. ([3]; day 3): 4.5
- O.D. ([3]; day 5): 0.042
- p.H. ([3]; day 5): 4.5
- O.D. ([3]; day 8): 0.073
- p.H. ([3]; day 8): 4.0
- O.D. ([3]; day 11): 0.067
- p.H. ([3]; day 11): 4.0
- O.D. ([3]; day 16): 0.098
- p.H. ([3]; day 16): 3.8
- O.D. ([3]; day 21): 0.080
- p.H. ([3]; day 21): 3.8
- O.D. ([3]; day 23): 0.035
- p.H. ([3]; day 23): 3.8
- O.D. ([3]; day 28): 0.033
- p.H. ([3]; day 28): 3.2
- O.D. ([3]; day 31): 0.020
- p.H. ([3]; day 31): 3.2
- reduction of corrosion of metallic containers used for transporting or containing sulfur (Thiobacilli): effective for reducing the corrosion
